Literature values as cited in PubChem BioAssay AID1259409 (Chemical Carcinogenesis Research Information System (CCRIS), 2018).

Test system: rodent chemically induced tumor inhibition, incidence and multiplicity
Experiment: CCRIS tumor inhibitor studies

For S=C=NCCCCCc1ccccc1, the “tumour outcome (control, treated, inhibition, significance)” value (Carcinogen: 4-(METHYLNITROSAMINO)-1-(3-PYRIDYL)-1-BUTANONE, 64091-91-4, Dose [Inhibitor]: 0, 0.2 UMOL 1/D FOR 4 D ADMINISTERED PRIOR TO CARCINOGEN TREATMENT (STUDY DURATION: 116 D), Route [Inhibitor]: GAVAGE, Species: MOUSE, Strain/Sex: STRAIN A, Target Tissue: Type of Lesion: LUNG: ADENOMA, Dose [Carcinogen]: 10 UMOL ONCE 2 HR AFTER FINAL DOSE OF INHIBITOR, Promoter: NONE USED) is listed as 100%, 100%, 0%, not significant, the “tumour outcome (control, treated, inhibition, significance)” value (Carcinogen: 4-(METHYLNITROSAMINO)-1-(3-PYRIDYL)-1-BUTANONE, 64091-91-4, Dose [Inhibitor]: 0, 1 UMOL 1/D FOR 4 D ADMINISTERED PRIOR TO CARCINOGEN TREATMENT (STUDY DURATION:116 D), Route [Inhibitor]: GAVAGE, Species: MOUSE, Strain/Sex: STRAIN A, Target Tissue: Type of Lesion: LUNG: ADENOMA, Dose [Carcinogen]: 10 UMOL ONCE 2 HR AFTER FINAL DOSE OF INHIBITOR, Promoter: NONE USED) is listed as 100%, 53%, 47%, p<0.05 and the “tumour outcome (control, treated, inhibition, significance)” value (Carcinogen: 4-(METHYLNITROSAMINO)-1-(3-PYRIDYL)-1-BUTANONE, 64091-91-4, Dose [Inhibitor]: 0, 5 UMOL 1/D FOR 4 D ADMINISTERED PRIOR TO CARCINOGEN TREATMENT (STUDY DURATION: 116 D), Route [Inhibitor]: GAVAGE, Species: MOUSE, Strain/Sex: STRAIN A, Target Tissue: Type of Lesion: LUNG: ADENOMA, Dose [Carcinogen]: 10 UMOL ONCE 2 HR AFTER FINAL DOSE OF INHIBITOR, Promoter: NONE USED) is listed as 100%, 25%, 75%, p<0.05.

In the case of S=C=Nc1cccc2ccccc12, the “tumour outcome (control, treated, inhibition, significance)” value (Carcinogen: 2-AMINO-3-METHYLIMIDAZO[4,5-B]PYRIDINE (PHIP) [105650-23-5), Dose [Inhibitor]: DIET, Route [Inhibitor]: 400 PPM ADMINISTERED FROM 42 TO 66 D OF AGE, Species: RAT, Strain/Sex: SPRAGUE-DAWLEY/FEMALE, Target Tissue: Type of Lesion: MAMMARY, CARCINOMA, Dose [Carcinogen]: 85 MG/KG BW 8 TIMES OVER 11 D, STARTING 1 WK AFTER ANIT FEEDING (STUDY DURATION: 24 WKS)) is given as 56.3%, 6.7%, 88.1%, p<0.001.

In the case of CC(O)CCCCCC(=O)c1ccccc1 (stereo not given), the “tumour outcome (control, treated, inhibition, significance)” value (Carcinogen: 4-(METHYLNITROSAMINO)-1-(3-PYRIDYL)-1-BUTANONE, 64091-91-4, Dose [Inhibitor]: 0, 25 UMOL IN 0.1 ML CORN OIL ONCE 2 HR PRIOR TO CARCINOGEN DOSE (STUDY DURATION: 16 WK), Route [Inhibitor]: GAVAGE, Species: MOUSE, Strain/Sex: STRAIN-A/FEMALE, Target Tissue: Type of Lesion: LUNG: ADENOMA, Dose [Carcinogen]: 10 UMOL IN 0.1 ML SALINE ONCE, Promoter: NONE USED) is listed as 100%, 100%, 0%, not significant.
